Data: PubChem BioAssay AID2060895 (Molecular Pharmacology Branch, DTP, NCI, 2025)

Test system: PDC 899932-113-R3-J6 complex spheroid viability
Test: Anticancer human tumor 899932-113-R3-J6-PDC patient-derived melanoma cell line growth inhibition [RAS]
Conditions: for IC50: curve of first compound; for viability, T/C: stronger effect = lower value; active = viability on the fitted dose curve at most 10% of control; inactive = the rest
Summary of the method: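 Agents were tested in combination matrices in half-log decrements from a top concentration at or near clinical Cmax (10 microM if undetermined). Targets were multi-cell spheroids of tumour lines plus HUVEC and MSC stromal cells.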

[1] = second compound 0.00316 µM, first compound 0.0316 µM
[2] = second compound 0.00316 µM, first compound 0.1 µM
[3] = second compound 0.00316 µM, first compound 0.316 µM
[4] = second compound 0.00316 µM, first compound 1 µM
[5] = second compound 0.00316 µM, first compound 3.16 µM
[6] = second compound 0.00316 µM, first compound 10 µM
[7] = second compound 0.01 µM, first compound 0.0316 µM
[8] = second compound 0.01 µM, first compound 0.1 µM
[9] = second compound 0.01 µM, first compound 0.316 µM
[10] = second compound 0.01 µM, first compound 1 µM
[11] = second compound 0.01 µM, first compound 3.16 µM
[12] = second compound 0.01 µM, first compound 10 µM
[13] = second compound 0.0316 µM, first compound 0.0316 µM
[14] = second compound 0.0316 µM, first compound 0.1 µM
[15] = second compound 0.0316 µM, first compound 0.316 µM
[16] = second compound 0.0316 µM, first compound 1 µM
[17] = second compound 0.0316 µM, first compound 3.16 µM
[18] = second compound 0.0316 µM, first compound 10 µM
[19] = second compound 0.1 µM, first compound 0.0316 µM
[20] = second compound 0.1 µM, first compound 0.1 µM
[21] = second compound 0.1 µM, first compound 0.316 µM
[22] = second compound 0.1 µM, first compound 1 µM
[23] = second compound 0.1 µM, first compound 3.16 µM
[24] = second compound 0.1 µM, first compound 10 µM
[25] = second compound 0.316 µM, first compound 0.0316 µM
[26] = second compound 0.316 µM, first compound 0.1 µM
[27] = second compound 0.316 µM, first compound 0.316 µM
[28] = second compound 0.316 µM, first compound 1 µM
[29] = second compound 0.316 µM, first compound 3.16 µM
[30] = second compound 0.316 µM, first compound 10 µM
[31] = second compound 1 µM, first compound 0.0316 µM
[32] = second compound 1 µM, first compound 0.1 µM
[33] = second compound 1 µM, first compound 0.316 µM
[34] = second compound 1 µM, first compound 1 µM
[35] = second compound 1 µM, first compound 3.16 µM
[36] = second compound 1 µM, first compound 10 µM
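Throughout, for viability, T/C: spheroids exposed to agents for seven days before readout; 100% = DMSO vehicle control wells.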

CC1(O)CCCC1n1c(=O)c(C(F)F)cc2cnc(NC3CCN(S(C)(=O)=O)CC3)nc21 (stereo not given) + C=CC(=O)N1CCN(c2nc(OCC3CCCN3C)nc3c(F)c(-c4nc(N)cc(C)c4C(F)(F)F)c(Cl)cc23)C(C)C1
inactive: viability, T/C [1] 99% | viability, T/C [2] 73.6% | viability, T/C [3] 62% | viability, T/C [4] 63.5% | viability, T/C [5] 57.3% | viability, T/C [6] 21.4% | viability, T/C [7] 92% | viability, T/C [8] 81.3% | viability, T/C [9] 71.1% | viability, T/C [10] 69.1% | viability, T/C [11] 64.5% | viability, T/C [12] 19.5% | viability, T/C [13] 94% | viability, T/C [14] 88.2% | viability, T/C [15] 65.8% | viability, T/C [16] 66.2% | viability, T/C [17] 53.1% | viability, T/C [18] 19.2% | viability, T/C [19] 96.2% | viability, T/C [20] 80.4% | viability, T/C [21] 62.2% | viability, T/C [22] 62.7% | viability, T/C [23] 54.5% | viability, T/C [24] 21.5% | viability, T/C [25] 94.7% | viability, T/C [26] 80.1% | viability, T/C [27] 65% | viability, T/C [28] 67.8% | viability, T/C [29] 60% | viability, T/C [30] 17.3% | viability, T/C [31] 88.5% | viability, T/C [32] 81.2% | viability, T/C [33] 63.7% | viability, T/C [34] 62% | viability, T/C [35] 62% | viability, T/C [36] 14%
1820 nM: IC50 (second compound 0.1 µM)
4020 nM: IC50 (second compound 0.01 µM)
3290 nM: IC50 (second compound 0.316 µM)
1840 nM: IC50 (second compound 0.00316 µM)
2480 nM: IC50 (second compound 0.0316 µM)
3300 nM: IC50 (second compound 1 µM)

CCC(CC)c1cc(NC2CCC(N)C2)n2nccc2n1 (stereo not given) + C=CC(=O)N1CCN(c2nc(OCC3CCCN3C)nc3c(F)c(-c4nc(N)cc(C)c4C(F)(F)F)c(Cl)cc23)C(C)C1
1610 nM: IC50 (second compound 1 µM)
inactive: viability, T/C [1] 101% | viability, T/C [2] 96.1% | viability, T/C [3] 105% | viability, T/C [4] 79.9% | viability, T/C [7] 107% | viability, T/C [8] 98.1% | viability, T/C [9] 98.1% | viability, T/C [10] 93.9% | viability, T/C [13] 116% | viability, T/C [14] 105% | viability, T/C [15] 99% | viability, T/C [16] 90% | viability, T/C [19] 106% | viability, T/C [20] 111% | viability, T/C [21] 94.1% | viability, T/C [22] 94.1% | viability, T/C [25] 96% | viability, T/C [26] 99.3% | viability, T/C [27] 102% | viability, T/C [28] 93.9% | viability, T/C [31] 109% | viability, T/C [32] 103% | viability, T/C [33] 98.2% | viability, T/C [34] 84.8%
1720 nM: IC50 (second compound 0.01 µM) | IC50 (second compound 0.316 µM)
active: viability, T/C [5] 0.74% | viability, T/C [6] 0.24% | viability, T/C [11] 0.74% | viability, T/C [12] 0.62% | viability, T/C [17] 0.75% | viability, T/C [18] 0.23% | viability, T/C [23] 0.78% | viability, T/C [24] 1.07% | viability, T/C [29] 0.72% | viability, T/C [30] 0.84% | viability, T/C [35] 0.86% | viability, T/C [36] 0.27%
1680 nM: IC50 (second compound 0.0316 µM)
1730 nM: IC50 (second compound 0.1 µM)
1540 nM: IC50 (second compound 0.00316 µM)

CCN1CCN(Cc2ccc(Nc3ncc(F)c(-c4cc(F)c5nc(C)n(C(C)C)c5c4)n3)nc2)CC1 + C=CC(=O)N1CCN(c2nc(OCC3CCCN3C)nc3c(F)c(-c4nc(N)cc(C)c4C(F)(F)F)c(Cl)cc23)C(C)C1
inactive: viability, T/C (second compound 0.00316 µM, first compound 0.00316 µM) 102% | viability, T/C (second compound 0.00316 µM, first compound 0.01 µM) 92.3% | viability, T/C [1] 88.7% | viability, T/C [2] 78% | viability, T/C [3] 62.2% | viability, T/C [4] 18.8% | viability, T/C (second compound 0.01 µM, first compound 0.00316 µM) 99.9% | viability, T/C (second compound 0.01 µM, first compound 0.01 µM) 98.5% | viability, T/C [7] 95.6% | viability, T/C [8] 85.5% | viability, T/C [9] 63% | viability, T/C [10] 22.6% | viability, T/C (second compound 0.0316 µM, first compound 0.00316 µM) 98.4% | viability, T/C (second compound 0.0316 µM, first compound 0.01 µM) 101% | viability, T/C [13] 103% | viability, T/C [14] 89.5% | viability, T/C [15] 63% | viability, T/C [16] 20.6% | viability, T/C (second compound 0.1 µM, first compound 0.00316 µM) 109% | viability, T/C (second compound 0.1 µM, first compound 0.01 µM) 94% | viability, T/C [19] 85.7% | viability, T/C [20] 83% | viability, T/C [21] 61.2% | viability, T/C [22] 24% | viability, T/C (second compound 0.316 µM, first compound 0.00316 µM) 101% | viability, T/C (second compound 0.316 µM, first compound 0.01 µM) 106% | viability, T/C [25] 90.5% | viability, T/C [26] 81% | viability, T/C [27] 65.9% | viability, T/C [28] 23.9% | viability, T/C (second compound 1 µM, first compound 0.00316 µM) 107% | viability, T/C (second compound 1 µM, first compound 0.01 µM) 104% | viability, T/C [31] 93% | viability, T/C [32] 72.8% | viability, T/C [33] 64.3% | viability, T/C [34] 18%
414 nM: IC50 (second compound 0.00316 µM)
393 nM: IC50 (second compound 1 µM)
457 nM: IC50 (second compound 0.01 µM)
447 nM: IC50 (second compound 0.0316 µM)
467 nM: IC50 (second compound 0.316 µM)
429 nM: IC50 (second compound 0.1 µM)

Cc1nc(N2CCC3(CC2)COC(C)C3N)c(CO)nc1Sc1ccnc(N)c1Cl (stereo not given) + C=CC(=O)N1CCN(c2nc(OCC3CCCN3C)nc3c(F)c(-c4nc(N)cc(C)c4C(F)(F)F)c(Cl)cc23)C(C)C1
> 10000 nM: IC50 (second compound 0.00316 µM) | IC50 (second compound 0.01 µM) | IC50 (second compound 0.0316 µM) | IC50 (second compound 0.1 µM) | IC50 (second compound 0.316 µM) | IC50 (second compound 1 µM)
inactive: viability, T/C [1] 110% | viability, T/C [2] 96.4% | viability, T/C [3] 102% | viability, T/C [4] 108% | viability, T/C [5] 115% | viability, T/C [6] 127% | viability, T/C [7] 106% | viability, T/C [8] 109% | viability, T/C [9] 113% | viability, T/C [10] 107% | viability, T/C [11] 119% | viability, T/C [12] 118% | viability, T/C [13] 99.7% | viability, T/C [14] 98.5% | viability, T/C [15] 117% | viability, T/C [16] 108% | viability, T/C [17] 120% | viability, T/C [18] 126% | viability, T/C [19] 99.5% | viability, T/C [20] 108% | viability, T/C [21] 107% | viability, T/C [22] 113% | viability, T/C [23] 120% | viability, T/C [24] 124% | viability, T/C [25] 126% | viability, T/C [26] 111% | viability, T/C [27] 108% | viability, T/C [28] 106% | viability, T/C [29] 108% | viability, T/C [30] 110% | viability, T/C [31] 113% | viability, T/C [32] 106% | viability, T/C [33] 114% | viability, T/C [34] 116% | viability, T/C [35] 110% | viability, T/C [36] 114%

NC1c2ccccc2OC12CCN(c1cnc3c(N4CCCc5ncccc54)n[nH]c3n1)CC2 (stereo not given) + C=CC(=O)N1CCN(c2nc(OCC3CCCN3C)nc3c(F)c(-c4nc(N)cc(C)c4C(F)(F)F)c(Cl)cc23)C(C)C1
inactive: viability, T/C [1] 113% | viability, T/C [2] 107% | viability, T/C [3] 114% | viability, T/C [4] 113% | viability, T/C [5] 108% | viability, T/C [6] 89.9% | viability, T/C [7] 108% | viability, T/C [8] 104% | viability, T/C [9] 115% | viability, T/C [10] 102% | viability, T/C [11] 115% | viability, T/C [12] 106% | viability, T/C [13] 116% | viability, T/C [14] 107% | viability, T/C [15] 115% | viability, T/C [16] 125% | viability, T/C [17] 121% | viability, T/C [18] 99.7% | viability, T/C [19] 107% | viability, T/C [20] 106% | viability, T/C [21] 114% | viability, T/C [22] 114% | viability, T/C [23] 102% | viability, T/C [24] 104% | viability, T/C [25] 110% | viability, T/C [26] 116% | viability, T/C [27] 112% | viability, T/C [28] 111% | viability, T/C [29] 115% | viability, T/C [30] 97.1% | viability, T/C [31] 114% | viability, T/C [32] 105% | viability, T/C [33] 119% | viability, T/C [34] 113% | viability, T/C [35] 112% | viability, T/C [36] 86.1%
> 10000 nM: IC50 (second compound 0.00316 µM) | IC50 (second compound 0.01 µM) | IC50 (second compound 0.0316 µM) | IC50 (second compound 0.1 µM) | IC50 (second compound 0.316 µM) | IC50 (second compound 1 µM)
